Reference: US20250163104A1, “MACROCYCLIC IMMUNOMODULATORS” (priority 2021, published 2025)
Where a SMILES comes first, the peptide text is derived from it. Bridges are numbered along the chain shown (N, C = ends). [ ]: non-standard residue; d: D form. The star is where a group is joined. Bip(3'-COOH) = N[C@@H](Cc1ccc(-c2cccc(C(=O)O)c2)cc1)C(=O)O; Phe(4-COOH) = N[C@@H](Cc1ccc(C(=O)O)cc1)C(=O)O; Bip = N[C@@H](Cc1ccc(-c2ccccc2)cc1)C(=O)O; Phe(3-Me) = Cc1cccc(C[C@H](N)C(=O)O)c1; Val(3-OH) = CC(C)(O)[C@H](N)C(=O)O; Cha = N[C@@H](CC1CCCCC1)C(=O)O; Cit = NC(=O)NCCC[C@H](N)C(=O)O; Carboxymethyl = O=C(O)C*; Nle = CCCC[C@H](N)C(=O)O; Orn = NCCC[C@H](N)C(=O)O; dDap = NC[C@@H](N)C(=O)O; Dab = NCC[C@H](N)C(=O)O; Dap = NC[C@H](N)C(=O)O

Biological target: T1, human PD-1 / PD-L1-Ig binding on Jurkat cell line over-expressing human PD-1 (Jurkat-PD-1) (Homo sapiens, UniProt Q15116)
T1 construct: expressed in transfected cells; host or cells: Jurkat
Test: Jurkat-PD-1 Cell Binding High-Content Screening Assay (CBA)
Assay type: cell-based
Settings: Jurkat-PD-1 cells, PE-labeled PD-L1-Ig 20 nM final; read-out: Jurkat HPD1_PDL1 IC50
Method in brief: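 Jurkat cells over-expressing human PD-1, in DMEM/10% FCS, pre-incubated with compound 2 h at 37° C. PE-labeled human PD-L1-Ig (20 nM final) added for 1 h; cells fixed in paraformaldehyde with Hoechst 33342 nuclear stain, washed, and bound fluorescence quantified by high-content imaging.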

T1 sequence (Q15116 25-288): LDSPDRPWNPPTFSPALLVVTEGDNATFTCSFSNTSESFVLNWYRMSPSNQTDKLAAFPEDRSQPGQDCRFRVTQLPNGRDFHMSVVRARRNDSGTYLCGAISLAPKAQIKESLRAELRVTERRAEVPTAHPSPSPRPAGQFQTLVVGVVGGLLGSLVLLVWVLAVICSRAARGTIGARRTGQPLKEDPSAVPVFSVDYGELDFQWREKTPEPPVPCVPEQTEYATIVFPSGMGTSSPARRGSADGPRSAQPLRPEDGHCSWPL

Row | IC50 | SMILES
1 | 7.6 nM | Cc1cccc(C[C@@H]2NC(=O)[C@H](CC(=O)O)NC(=O)[C@H](Cc3ccc(OCC(=O)O)cc3)NC(=O)[C@H](CCN)NC(=O)CSC[C@@H](C(=O)N[C@@H](CCN)C(N)=O)NC(=O)[C@H](CO)NC(=O)[C@H](C(C)(C)O)NC(=O)[C@H](CC3CCCCC3)NC(=O)[C@H](Cc3cnc[nH]3)NC(=O)[C@@H](CC(C)C)NC(=O)[C@H](CCCN)NC(=O)[C@H](Cc3ccc(OCC(=O)O)cc3)NC(=O)[C@H](Cc3ccc(-c4ccccc4)cc3)NC(=O)[C@H](Cc3ccc(OCC(=O)O)cc3)NC2=O)c1 [Compound 2653] ({CH2CO}-[Dab]Y(Carboxymethyl)D[Phe(3-Me)]Y(Carboxymethyl)[Bip]Y(Carboxymethyl)[Orn][dL]H[Cha][Val(3-OH)]SC[Dab]-NH2; thioether N-14)
2 | 31.3 nM | CCCC[C@@H]1NC(=O)[C@H](CCN)NC(=O)[C@@H](CC(C)C)NC(=O)[C@H](CCCN)NC(=O)[C@H]([C@@H](C)CC)NC(=O)[C@H](Cc2ccc(-c3ccccc3)cc2)NC(=O)[C@H](C(C)C)NC(=O)[C@H](Cc2c[nH]c3ccccc23)NC(=O)[C@H](CC(=O)O)NC(=O)[C@H](Cc2ccc(O)cc2)NC(=O)[C@H](CN)NC(=O)CSC[C@@H](C(=O)N[C@@H](C)C(N)=O)NC(=O)[C@H]([C@@H](C)O)NC(=O)[C@H](C(C)C)NC1=O [Compound 1160] ({CH2CO}-[Dap]YDWV[Bip]I[Orn][dL][Dab][Nle]VTCA-NH2; thioether N-14)
3 | 31.9 nM | CC(C)C[C@@H]1NC(=O)[C@H](CCN)NC(=O)[C@@H](CC(C)C)NC(=O)[C@H](CCCN)NC(=O)[C@H](CCCNC(N)=O)NC(=O)[C@H](Cc2ccc(-c3ccccc3)cc2)NC(=O)[C@H](C(C)C)NC(=O)[C@H](Cc2c[nH]c3ccccc23)NC(=O)[C@H](CC(=O)O)NC(=O)[C@H](Cc2ccc(C(=O)O)cc2)NC(=O)[C@H](CN)NC(=O)CSC[C@@H](C(=O)N[C@@H](C)C(N)=O)NC(=O)[C@H]([C@@H](C)O)NC(=O)[C@H](C(C)C)NC1=O [Compound 1043] ({CH2CO}-[Dap][Phe(4-COOH)]DWV[Bip][Cit][Orn][dL][Dab]LVTCA-NH2; thioether N-14)
4 | 14.3 nM | CC(C)C[C@H]1NC(=O)[C@H](CCCN)NC(=O)[C@H](CCC(=O)O)NC(=O)[C@H](Cc2ccc(-c3ccccc3)cc2)NC(=O)[C@H](C(C)C)NC(=O)[C@H](Cc2c[nH]c3ccccc23)NC(=O)[C@H](CC(=O)O)NC(=O)[C@H](Cc2ccc(-c3cccc(C(=O)O)c3)cc2)NC(=O)[C@H](CC(N)=O)NC(=O)CSC[C@@H](C(=O)N[C@@H](C)C(N)=O)NC(=O)[C@H]([C@@H](C)O)NC(=O)[C@H](C(C)C)NC(=O)[C@H](CC2CCCCC2)NC(=O)[C@H](CCN)NC1=O [Compound 2160] ({CH2CO}-N[Bip(3'-COOH)]DWV[Bip]E[Orn][dL][Dab][Cha]VTCA-NH2; thioether N-14)
5 | 11.1 nM | CC(C)C[C@H]1NC(=O)[C@H](CCCN)NC(=O)[C@H](C(C)C)NC(=O)[C@H](Cc2ccc(-c3ccccc3)cc2)NC(=O)[C@H](C(C)C)NC(=O)[C@H](Cc2c[nH]c3ccccc23)NC(=O)[C@H](CC(=O)O)NC(=O)[C@H](Cc2ccc(OCC(=O)O)cc2)NC(=O)[C@H](Cc2ccc(OCC(=O)O)cc2)NC(=O)CSC[C@@H](C(=O)N[C@@H](C)C(N)=O)NC(=O)[C@H]([C@@H](C)O)NC(=O)[C@H](C(C)C)NC(=O)[C@H](Cc2ccccc2)NC(=O)[C@H](CCN)NC1=O [Compound 1663] ({CH2CO}-Y(Carboxymethyl)Y(Carboxymethyl)DWV[Bip]V[Orn][dL][Dab]FVTCA-NH2; thioether N-14)
6 | 14.7 nM | Cc1cccc(C[C@@H]2NC(=O)[C@H](CC(=O)O)NC(=O)[C@H](Cc3ccc(C(=O)O)cc3)NC(=O)[C@H](CN)NC(=O)CSC[C@@H](C(=O)N[C@@H](CCN)C(N)=O)NC(=O)[C@@H](CN)NC(=O)[C@H](C(C)C)NC(=O)[C@H](CC3CCCCC3)NC(=O)[C@H](CCN)NC(=O)[C@@H](CC(C)C)NC(=O)[C@H](CCCN)NC(=O)[C@H](C(C)C)NC(=O)[C@H](Cc3ccc(-c4ccccc4)cc3)NC(=O)[C@H](C(C)C)NC2=O)c1 [Compound 2030] ({CH2CO}-[Dap][Phe(4-COOH)]D[Phe(3-Me)]V[Bip]V[Orn][dL][Dab][Cha]V[dDap]C[Dab]-NH2; thioether N-14)
